Source: US4414332A (Boehringer Mannheim GmbH, priority 1980, dated 1983)
“Also recorded” adds a separate entry of the source. Where two headings read alike, the source gives them in different places.

Target: T1, endoproteinase-Lys-C (Lysobacter enzymogenes, UniProt Q7M135)
T1 construct: consists of a chain of molecular weight 35000 to 38000 Dalton; made in house
Test: Inhibition of endoproteinase-Lys-C by protease inhibitors
Format: biochemical, Lysobacter enzymogenes ssp. enzymogenes

T1 sequence (Q7M135 whole entry): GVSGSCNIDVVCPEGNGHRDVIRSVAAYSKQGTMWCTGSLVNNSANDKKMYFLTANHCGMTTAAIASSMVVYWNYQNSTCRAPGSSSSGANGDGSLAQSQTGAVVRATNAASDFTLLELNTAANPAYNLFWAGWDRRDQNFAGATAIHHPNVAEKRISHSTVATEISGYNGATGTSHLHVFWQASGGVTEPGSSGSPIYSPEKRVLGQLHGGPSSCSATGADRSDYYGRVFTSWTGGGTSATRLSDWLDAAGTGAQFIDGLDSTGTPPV

Compound: O=C(O)CN(CCN(CC(=O)O)CC(=O)O)CC(=O)O [ethylenediaminetetraacetic acid]
- inhibition of the enzyme: not inhibited
- inhibition of the enzyme (EDTA up to 10^-2 M): do not inhibit

Compound: α1 -antitrypsin
- inhibition of the enzyme: not inhibited; also recorded: do not inhibit

Compound: N=C(N)c1ccccc1 [Benzamidine]
- inhibition at 2500 µM (at 2.5 mM, read-out: inhibition of the enzyme): ~50%

Compound: aprotinin
- inhibition of the enzyme: inhibited
- inhibition of the enzyme (listed as Aprotonin): inhibits the enzyme completely

Compound: α2 -macroglobulin
- inhibition of the enzyme: not inhibited
- inhibition of the enzyme (listed as alpha2 microglobulin): do not inhibit
